# Where two headings read alike, the source gives them in different places.
# Tests used:
# Assay type in all cases: cell-based
# [1] = test system: IL-6; experiment: Inhibition of IL-6 production by stimulated human peripheral blood leukocytes in vitro; settings: Homo sapiens, Leukocyte, PBL, read-out: Percentage of inhibition of IL-6 production; for inhibition at 10 µM: compound 10 μM; for inhibition at 50 µM: compound 50 μM
# In short: (§1)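 Dextran-isolated human PBL (3-5×10^6 per well) in RPMI with 10% FCS were preincubated 2 h at 37 °C with compounds at 50 μM or 10 μM final, then stimulated overnight with 2 μg/mL LPS, 1 μg/mL PMA or 120 μg/mL zymosan. Supernatant cytokines by sandwich ELISA; % inhibition versus stimulated untreated control.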
# [2] = test system: IL-8; experiment: Inhibition of IL-8 production by stimulated human peripheral blood leukocytes in vitro; settings: Homo sapiens, Leukocyte, PBL, read-out: Percentage of inhibition of IL-8 production; for inhibition at 10 µM: compound 10 μM; for inhibition at 50 µM: compound 50 μM
# In short: as §1
# [3] = test system: human peripheral blood mononuclear cells (PBMC); experiment: Human T-cell proliferation in vitro (3H-thymidine incorporation); settings: Homo sapiens, PBMC, read-out: Percentage of inhibition of proliferation of stimulated PBMC; for inhibition at 10 µM: compound 10 μM; for inhibition at 50 µM: compound 50 μM
# Experimental: Influence of substances at two different concentrations (50 μM and 10 μM) on cell proliferation of human peripheral blood mononuclear cells (PBMC) was assessed.
# Heparinized peripheral blood was obtained from healthy donors, and PBMC were isolated by Histopaque 1077 (Sigma, USA) density centrifugation at 400×g for 30 minutes. 5×10^4 cells/well were cultured for 3 days in the RPMI medium as described above, in the presence (positive control) or absence (negative control) of stimulators [PHA (2.5 μg/mL) (Sigma, USA), or both PMA (10 ng/mL) (Sigma, USA) and ionomycin (500 ng/mL) (Calbiochem, USA)], and in the presence of the test compounds, at 37° C. in an atmosphere of 5% CO2 and 90% humidity. The cells were pulsed with 1 μCi of ^3H-thymidine (Amersham, USA) per well during the last 18 h of the culture, and were harvested on the 96-well filter (Packard Bioscience, USA) using a multiple cell harvester (Packard, USA). The incorporation of ^3H-thymidine in activated cells were measured using TopCount NXT (Packard, USA).
# Inhibition (as percentage) was calculated using the following formula: % inhibition=(1−(^3H)thymidine incorporation expressed in counts per minute (cpm) in sample/(^3H)thymidine incorporation expressed in cpm in positive control)×100
# where positive control refers to stimulated samples, not treated with substances.
# [4] = test system: TNF-α; experiment: Inhibition of TNF-α production by stimulated human peripheral blood leukocytes in vitro; settings: Homo sapiens, Leukocyte, PBL, read-out: Percentage of inhibition of TNF-α production; for inhibition at 10 µM: compound 10 μM; for inhibition at 50 µM: compound 50 μM
# In short: as §1
# [5] = test system: IL-1α; experiment: Inhibition of IL-1 production by stimulated human peripheral blood leukocytes in vitro; settings: Homo sapiens, Leukocyte, PBL, read-out: Percentage of inhibition of IL-1α production; for inhibition at 10 µM: compound 10 μM; for inhibition at 50 µM: compound 50 μM
Compound,inhibition at 10 µM ([1]; LPS stimulated) [%],inhibition at 50 µM ([1]; LPS stimulated) [%],inhibition at 10 µM ([1]; PMA stimulated) [%],inhibition at 50 µM ([1]; PMA stimulated) [%],inhibition at 10 µM ([1]; zymosan stimulated) [%],inhibition at 50 µM ([1]; zymosan stimulated) [%],inhibition at 10 µM ([2]; LPS stimulated) [%],inhibition at 50 µM ([2]; LPS stimulated) [%],inhibition at 10 µM ([2]; PMA stimulated) [%],inhibition at 50 µM ([2]; PMA stimulated) [%],inhibition at 10 µM ([2]; zymosan stimulated) [%],inhibition at 50 µM ([2]; zymosan stimulated) [%],inhibition at 10 µM ([3]; PHA stimulated) [%],inhibition at 50 µM ([3]; PHA stimulated) [%],inhibition at 10 µM ([3]; PMA + ionomycin stimulated) [%],inhibition at 50 µM ([3]; PMA + ionomycin stimulated) [%],inhibition at 10 µM ([4]; LPS stimulated) [%],inhibition at 50 µM ([4]; LPS stimulated) [%],inhibition at 10 µM ([4]; PMA stimulated) [%],inhibition at 50 µM ([4]; PMA stimulated) [%],further results
"CC[C@H]1OC(=O)[C@H](C)[C@@H](O[C@H]2C[C@@](C)(OC)[C@@H](O)[C@H](C)O2)[C@H](C)[C@@H](O[C@@H]2O[C@H](C)C[C@H](N(C)C)[C@H]2O)[C@](C)(O)C[C@@H](C)CN(C)[C@H](C)[C@@H](O)[C@]1(C)O [Azithromycin, azithromycin, reference compound]",15,40,0,0,20,75,0,0,0,0,0,0,5,29,9,31,36,20,0,0,inhibition at 10 µM ([4]; zymosan stimulated): 6%; inhibition at 50 µM ([4]; zymosan stimulated): 64%; inhibition at 10 µM ([5]; LPS stimulated): 28%; inhibition at 50 µM ([5]; LPS stimulated): 48%; inhibition at 10 µM ([5]; PMA stimulated): 0%; inhibition at 50 µM ([5]; PMA stimulated): 0%; inhibition at 10 µM ([5]; zymosan stimulated): 20%; inhibition at 50 µM ([5]; zymosan stimulated): 75%
CC[C@H]1OC(=O)[C@H](C)[C@@H](O[C@H]2C[C@@](C)(OC)[C@@H](O)[C@H](C)O2)[C@H](C)[C@@H](O[C@@H]2O[C@H](C)C[C@H](N(C)C)[C@H]2O)[C@](C)(O)C[C@@H](C)CN(C(=S)Nc2ccccc2F)[C@H](C)[C@@H](O)[C@]1(C)O [Compound 5],64,72,44,60,66,88,16,42,23,69,20,46,0,72,20,87,19,45,62,85,inhibition at 10 µM ([4]; zymosan stimulated): 49%; inhibition at 50 µM ([4]; zymosan stimulated): 76%; inhibition at 10 µM ([5]; LPS stimulated): 41%; inhibition at 50 µM ([5]; LPS stimulated): 10%; inhibition at 10 µM ([5]; PMA stimulated): 14%; inhibition at 50 µM ([5]; PMA stimulated): 14%; inhibition at 10 µM ([5]; zymosan stimulated): 27%; inhibition at 50 µM ([5]; zymosan stimulated): 41%

# Reference: patent publication US20080200403A1, “9A-Carbamoyl and Thiocarbamoyl Azalides with Anti-Inflammatory Activity” (GLAXOSMITHKLINE, priority 2005, published 2008)
